According to the pKa sets of Baltruschat and Czodrowski (2020):

Settings: acidic group

In order of falling pKa:
1. CC(=O)C(C(C)=O)C(C)C  12.8
2. S=CNCc1ccccc1  12.3
3. O=C1CCc2ccc([N+](=O)[O-])cc2C1  11.8
4. CCC1(C2=CCCCC2)C(=O)[N-]C(=S)NC1=O  11.8
5. [O-]c1ncncc1O  11.6
6. CC(C(=O)c1ccccc1)[n+]1ccccc1 (stereo unspecified)  11.5
7. Cc1ccc(S(=O)(=O)NCC(=O)[O-])cc1  11.4
8. O=C1CC(c2ccccc2)NC(=O)N1 (stereo unspecified)  11.2
9. c1ccc(CNc2ncnc3[nH]ncc23)cc1  10.9
10. O=[N+]([O-])c1ccc[nH]1  10.6
11. Cc1ccc(C(=S)Nc2cccc(F)c2)cc1  10.6
12. COc1ccccc1-c1ccccc1O  10.4
13. Oc1nc([S-])nc2nc[nH]c12  10.3
14. Cc1ccccc1O  10.2
15. Nc1nc(N)nc([S-])n1  10.2
16. c1nc(NC2CCCCC2)c2[nH]cnc2n1  10.2
17. S=C(Nc1ccc(Cl)cc1)c1cccc(Br)c1  10.1
18. CC(C)(/C=C/C(=O)[O-])c1cc(Br)ccc1O  10
19. O=c1ccc2ccccc2cc1O  10
20. NS(=O)(=O)c1ccc(F)cc1  9.34
21. O=C1/C(=C2\C=CC=CN2)C(=O)c2cc([N+](=O)[O-])ccc21  9.26
22. Cn1ncc2c(=O)[nH]cnc21  9.26
23. C/C(=N\O)C(=O)c1ccccc1  9.25
24. COc1ncnc2nc[nH]c12  9.16
25. NS(=O)(=O)c1ccc(Cl)c(Cl)c1  8.94
26. CC(N)c1nnn[n-]1 (stereo unspecified)  8.77
27. Nc1ccc(S(=O)(=O)Nc2ccc(N)cn2)cc1  8.47
28. CC(=O)C1CCCC1=O (stereo unspecified)  7.82
29. C[NH2+]CC(=O)c1ccc(O)cc1  7.7
30. O=C1C=CC(=NO)C=C1  6.36
31. O=C([O-])C[NH+](CC(=O)[O-])Cc1cc([N+](=O)[O-])ccc1O  6.18
32. N#CC(C#N)=NNc1ccc([N+](=O)[O-])cc1  5.5
33. CCOC(=O)C(=NO)C(=O)OCC  5.48
34. O=C1CCCC(=O)C1  5.26
35. N#CC(C#N)=NNc1cccc(Cl)c1Cl  5.15
36. CCC(CC)C(=O)O  4.73
37. N#CC(C#N)=NNc1c(Cl)cccc1Cl  4.7
38. O=C(O)CCc1ccc(Cl)cc1  4.65
39. c1ccc(CCNc2ncnc3[nH]ncc23)cc1  4.38
40. C[N+](C)(O)c1ccccc1  4.21
41. [NH3+]CCCCCCC#CC#CCCC(=O)O  4.21
42. Cc1ccc(S(=O)(=O)NC(=O)OCc2ccccc2)cc1  4.21
43. O=C(O)C(c1ccc(-c2ccccc2)cc1)C(O)C1CCCCC1 (stereo unspecified)  4.19
44. Cc1ccc([Se]CC(=O)O)cc1  3.86
45. O=C(O)c1ccccc1CO  3.84
46. COc1cc2ccccc2cc1C(=O)O  3.82
47. [NH3+]C/C=C/C(=O)O  3.55
48. O=C(O)CC(=O)/C=N/O  3.5
49. CC(C)CN(CC(C)C)C(=S)S  3.4
50. O=C(O)Cn1ccc2ccccc21  3.4
51. CC#CC#CCC(=O)O  3.23
52. Cc1c(Cl)cc2nnn(O)c2c1[N+](=O)[O-]  3.21
53. Cc1cc([N+](=O)[O-])ccc1C(=O)O  2.91
54. CN(C)c1cccc[n+]1O  2.27
55. CC(=O)N1CS(=O)(=O)C[C@H]1C(=O)O  2.23
56. CC(C)Cc1cnc(CC(C)C)c(O)[nH+]1  1.7
57. CC(=O)[n+]1cccc(C#N)c1  1.62
58. Cc1ccc(C(=O)C(=O)O)cc1C  1.36

With `NC(=O)C(N)=S` the pKa was 11.5.

Same assay, conditions: basic group

In order of rising pKa:
1. c1ccc(-c2ccn[nH]2)[nH+]c1  -1.1
2. N#CC(C#N)=NNc1cccc(Cl)c1Cl  -0.71
3. N#CC(C#N)=NNc1c(Cl)cccc1Cl  -0.67
4. COc1ccc(OC)nn1  1.61
5. CNCl  1.71
6. O=Cc1cccc(C=O)n1  1.92
7. CN(C)c1ccc(/N=N/c2cccc[nH+]2)cc1  2
8. COc1nccc(C)n1  2.1
9. COc1ncnc2nc[nH]c12  2.21
10. CCNC(=O)c1ccccn1  2.4
11. c1ccc2c(c1)N1CC[NH+]2CC1  2.5
12. Clc1cc(-c2ccccc2)nnc1NCC[NH+]1CCOCC1  2.54
13. CSc1ccc(N)c(Cl)c1  2.56
14. Nc1cccc2nnccc12  2.7
15. CNc1ncnc2scnc12  2.84
16. Cc1ncnc2nccnc12  2.92
17. C#CCNc1ccccc1  3.06
18. CC(=O)n1cccn1  3.16
19. CC[NH+](CC)CCCC(C)Nc1cc(OC)cc2cccnc12 (stereo unspecified)  3.63
20. COc1cc(C)ncn1  3.65
21. Cc1ccc(N(C)CO)cc1  3.73
22. c1ccc(CNc2ncnc3[nH]ncc23)cc1  4.16
23. CCNc1cccc2ccccc12  4.19
24. c1nc(NC2CCCCC2)c2[nH]cnc2n1  4.2
25. NC(=O)Cc1cccnc1  4.72
26. O=C([O-])c1ccc2ncccc2c1  4.82
27. CC(C)CNc1ccccc1  4.84
28. Nc1cccnn1  5.19
29. Nc1ccc2nc(/C=C/c3ccccc3)ccc2c1  5.5
30. O=C1N[C@@H](Cc2c[nH+]c[nH]2)C(=O)N[C@H]1Cc1cnc[nH]1  5.56
31. CCCCc1ccc(C(=O)[O-])nc1  5.7
32. C1CN2C(=N1)N1CCN=C1N1CCN=C21  5.8
33. [NH3+]CCCCc1ccncc1  5.81
34. CCCCCCCCCCCCCCN(CC(C)O)CC(O)CC (stereo unspecified)  6.1
35. Nc1ccc2ccncc2c1  6.2
36. CCCN(CC)c1ccccc1  6.39
37. CCCN(CC)C(CC)C(=O)Nc1c(C)cccc1C (stereo unspecified)  6.62
38. CSC(C)=N  6.71
39. CCCn1ccnc1CO  7.04
40. CCOc1ccc2nc3c(c(N4CCOCC4)c2c1)CCC3  7.11
41. CCN(CC)CCS(=O)(=O)c1ccc(OC)c(OC)c1OC  7.41
42. [O-]c1ncncc1O  7.48
43. Nc1nc(N)nc([S-])n1  7.8
44. CC(C)CSC(=N)c1ccccc1  8.22
45. CCCC(=O)SCCN(C)C  8.32
46. NCc1ccc([N+](=O)[O-])cc1  8.5
47. CC(=O)C1(c2cccc(O)c2)CCN(C)CC1  8.61
48. O=C(CCNCCC(=O)c1ccccc1)c1ccccc1  8.69
49. COc1cc([N+](=O)[O-])cc(C(=O)N[C@@H]2C[C@H]3CC[C@@H](C2)N3Cc2ccccc2)c1OC  8.7
50. Cc1ccc(Cl)cc1/C(=N/CCCN(C)C)c1ccccc1  8.8
51. CN(C)CCCNc1ccnc2ccccc12  8.85
52. CCc1ccc(OC)c(C(=O)NC[C@H]2CCCN2CC)c1[O-]  9.54
53. CN(C)c1ccc(/C=C/c2cc(N)c3ccccc3n2)cc1  9.7
54. CN(C)CCCN(C)C  9.8
55. CN(C)CCNCCN  9.91
56. CC#C[C@H](C)Oc1cc(N)c(Cl)cc1C(=O)N[C@@H]1C[C@H]2CC[C@@H](C1)N2C  9.95
57. N[C@H]1C[C@@H]2CCCC[C@H]2C[C@@H]1N  9.97
58. CCCNCC(=O)[O-]  10.2
59. Cn1nc(-c2ccccc2)cc/c1=N\CCN1CCOCC1  10.2
60. c1ccc2c(CC3=NCCN3)cccc2c1  10.3
61. O=C(O[C@@H]1C[C@H]2CC[C@@H](C1)N2)[C@H](CO)c1ccccc1  10.3
62. NCCCN  10.6
63. CC([Se-])CN (stereo unspecified)  10.8
64. CCC(C)NC(C)CC (stereo unspecified)  10.9
65. CCN(CC)Cc1cccc(C)c1[O-]  10.9
66. CC1(C)CCCC(C)(C)N1  11.2
67. O=C([O-])CN(CC(=O)[O-])Cc1ccccc1[O-]  11.8
